Measurements from patent publication EP4792822A1, “USE OF PEPTIDE AMIDE COMPOUND IN PREPARATION OF DRUG FOR […] AND VOMITING” (Haisco Pharmaceutical Group Co., Ltd., priority 2023, dated 2025).

Tested on: subjects undergoing elective laparoscopic abdominal or gynaecological surgery under general anaesthesia
Assay: Example 3: placebo-controlled dose study of compound 1 injection for the prevention of postoperation nausea and vomiting
Format: in vivo, patients
Conditions: for Complete response (CR) within 24 h after surgery: single intravenous bolus; for Significant nausea within 24 h after surgery: VAS score ≥ 4 cm; for subject satisfaction scores for PONV / time to the first occurrence of emesis (vomiting or retching) or administration of rescue treatment within 24 h after surgery: mean ± standard deviation
Method: Study period: Treatment duration: 24 h after surgery; Follow-up duration: 48 h after surgery
Protocol: This study was a multicentre, randomised, double-blind, placebo-controlled study. About 200 subjects undergoing elective laparoscopic abdominal or gynaecological surgery under general anaesthesia were planned to be enrolled and randomised at a 1 : 1 : 1 : 1 ratio into the compound 1-60 µg group (50 subjects), the compound 1-120 µg group (50 subjects), the compound 1-180 µg group (50 subjects), and the placebo group (50 subjects).
A single dose of the study drug was administered within 15 min before the end of surgery. The dosing regimen is as follows: Compound 1-60 µg group: A single dose of 60 µg of compound 1 injection was administered within 15 min before the end of surgery, via intravenous bolus injection, with an intravenous bolus injection time of not less than 30 s.
Compound 1-120 µg group: A single dose of 120 µg of compound 1 injection was administered within 15 min before the end of surgery, via intravenous bolus injection, with an intravenous bolus injection time of not less than 30 s.
Compound 1-180 µg group: A single dose of 180 µg of compound 1 injection was administered within 15 min before the end of surgery, via intravenous bolus injection, with an intravenous bolus injection time of not less than 30 s.
Placebo group: A single dose of placebo was administered within 15 min before the end of surgery, via intravenous bolus injection, with an intravenous bolus injection time of not less than 30 s.
Primary efficacy endpoint: Complete response (CR) rate at 24 h after surgery (CR is defined as no vomiting or retching and no use of rescue medication within 24 h after surgery).
Secondary efficacy endpoints: Proportion of subjects experiencing nausea after surgery; proportion of subjects experiencing significant nausea after surgery (significant nausea is defined as a VAS score ≥ 4 cm); proportion of subjects experiencing vomiting after surgery (vomiting [even with expulsion of a minimal amount of gastric contents] or retching [muscular movement of vomiting without expulsion of gastric contents]); proportion of subjects using rescue medication after surgery; time to the first occurrence of emesis (vomiting or retching) or administration of rescue treatment within 24 h after surgery, whichever occurs first; cumulative dosage of analgesic agents within 24 h after surgery; and subject and investigator satisfaction scores for PONV.
Safety endpoints: Incidence and severity of adverse events; and vital signs, 12-lead ECG, physical examination, and laboratory examinations.
Subjects who met all inclusion criteria and none of the exclusion criteria received a single dose of compound 1 injection or placebo within 15 min before the end of surgery (defined as the completion of the last suture of the wound).
The use of any antiemetic agents or agents with antiemetic effects, other than the study drug and rescue medications specified in the protocol, was prohibited from 24 h before the start of surgery (defined as the start of skin incision) to 24 h after the end of surgery. Prophylactic antiemetic treatment was prohibited.
Within 24 h after the end of surgery, if the subject experienced ≥ 1 episode of vomiting, retching, or nausea and complained of requiring antiemetic treatment, the subject received rescue antiemetic agents specified in the protocol after assessment by the investigator (tropisetron was the preferred rescue antiemetic agent; it was recommended that an initial intravenous dose of 2.5 mg be administered, followed by additional doses as needed, not to exceed 10 mg within 24 h). If tropisetron was insufficiently effective, other agents were used by the investigator in accordance with routine clinical practice.
Within 30 min after the end of surgery, a PCA pump containing morphine hydrochloride injection was initiated. Subjects self-administered analgesia by pressing the PCA pump when experiencing pain. […]

[1] = Example 3, compared with placebo

CC(=O)N1CC2(CCN(C(=O)[C@@H](CCCCN)NC(=O)[C@@H](CC(C)C)NC(=O)[C@@H](Cc3ccccc3)NC(=O)[C@H](N)Cc3ccccc3)CC2)C1 [Compound 1, (2R)-N-[(1R)-1-(2-acetyl-2,7-diazaspiro[3.5]nonane-7-carbonyl)-5-amino-pentyl]-2-[[(2R)-2-[[(2R)-2-amino-3-phenyl-propionyl]amino]-3-phenylpropionyl]amino]-4-methyl-pentanamide]
investigator satisfaction scores for PONV (60 µg group): 8.9 ± 1.84 | Nausea within 24 h after surgery (60 µg group (N = 49)): 18 (36.7) n (%) | Use of rescue medication within 24 h after surgery (60 µg group (N = 49)): 7 (14.3) n (%) | Vomiting within 24 h after surgery (60 µg group (N = 49)): 12 (24.5) n (%) | Complete response (CR) within 24 h after surgery (60 µg group (N = 49)): 36 (73.5) n (%) | Significant nausea within 24 h after surgery (60 µg group (N = 49)): 9 (18.4) n (%) | subject satisfaction scores for PONV (60 µg group): 9.0 ± 1.89 | time to the first occurrence of emesis (vomiting or retching) or administration of rescue treatment within 24 h after surgery (60 µg group): 18.3109 ± 9.6700 h | CR rate at 24 h after surgery, comparison among dose groups (120 µg group): highest CR rate | investigator satisfaction scores for PONV (120 µg group): 8.9 ± 1.71 | Nausea within 24 h after surgery (120 µg group (N = 49)): 11 (22.4) n (%) | Use of rescue medication within 24 h after surgery (120 µg group (N = 49)): 6 (12.2) n (%) | Vomiting within 24 h after surgery (120 µg group (N = 49)): 8 (16.3) n (%) | Complete response (CR) within 24 h after surgery (120 µg group (N = 49)): 40 (81.6) n (%) | Significant nausea within 24 h after surgery (120 µg group (N = 49)): 7 (14.3) n (%) | subject satisfaction scores for PONV (120 µg group): 9.1 ± 1.52 | time to the first occurrence of emesis (vomiting or retching) or administration of rescue treatment within 24 h after surgery (120 µg group): 20.1119 ± 8.4192 h | investigator satisfaction scores for PONV (180 µg group): 9.0 ± 1.39 | Nausea within 24 h after surgery (180 µg group (N = 50)): 16 (32.0) n (%) | Use of rescue medication within 24 h after surgery (180 µg group (N = 50)): 8 (16.0) n (%) | Vomiting within 24 h after surgery (180 µg group (N = 50)): 9 (18.0) n (%) | Complete response (CR) within 24 h after surgery (180 µg group (N = 50)): 39 (78.0) n (%) | Significant nausea within 24 h after surgery (180 µg group (N = 50)): 11 (22.0) n (%) | subject satisfaction scores for PONV (180 µg group): 9.0 ± 1.65 | time to the first occurrence of emesis (vomiting or retching) or administration of rescue treatment within 24 h after surgery (180 µg group): 19.7203 ± 8.7225 h | TEAEs leading to study withdrawal or death (Example 3): no TEAEs leading to study withdrawal or death were observed | TESAEs (treatment-emergent serious adverse events) (Example 3): No TESAEs (treatment-emergent serious adverse events) occurred | overall safety (Example 3): good overall safety | severity of TEAEs and ADRs (Example 3, all TEAEs and ADRs): Grade 1-2 | incidence of ADRs [1]: slightly higher than that in the placebo group | overall incidence of TEAEs [1]: lower than that in the placebo group | proportion of subjects experiencing nausea, severe nausea, vomiting, and using rescue medication within 24 h after surgery, compared with placebo (each dose group): lower than that in the placebo group | complete response (CR) rate at 24 h after surgery, compared with placebo (each dose group (60, 120, 180 µg), P < 0.05): higher than that in the placebo group | PONV satisfaction scores of investigators, compared with placebo (each dose group, P < 0.05): higher than those in the placebo group | PONV satisfaction scores of subjects, compared with placebo (each dose group, P < 0.05): higher than those in the placebo group | time to the first occurrence of emesis (vomiting or retching) or administration of rescue treatment within 24 h after surgery, compared with placebo (each dose group, P < 0.05): later than that in the placebo group
